Measured values taken from patent US6872716B2, “Antipsychotic sulfonamide-heterocycles, and methods of use thereof” (Sepracor, Inc., priority 2000, dated 2005).
pIC50: −log10 of the molar value.

Key:
[1] = tail flick model (in vivo analgesia); conditions: iv; administered intravenously
Experimental: (§1) The acetic acid writhing model was conducted according to Inoue K. et al. Arzneim. Forsch 1991, 41(I), 235. The formalin model was conducted according to Hunskaar, S. et al. J. Neurosci Meth. 1985, 14, 69. The tail flick model was conducted according to D'Amour F. E. and Smith D. L. J. Pharmacol. Exp. Ther. 1941, 72, 74. Compound 6 was administered intravenously.

[2] = formalin model (in vivo analgesia); conditions: iv; administered intravenously
Experimental: as §1

[3] = molecular target: Sigma-1 (human) (Homo sapiens, UniProt Q99720); assay: sigma-1 radioligand binding screen
Sequence of Sigma-1 (human) (Q99720 whole entry): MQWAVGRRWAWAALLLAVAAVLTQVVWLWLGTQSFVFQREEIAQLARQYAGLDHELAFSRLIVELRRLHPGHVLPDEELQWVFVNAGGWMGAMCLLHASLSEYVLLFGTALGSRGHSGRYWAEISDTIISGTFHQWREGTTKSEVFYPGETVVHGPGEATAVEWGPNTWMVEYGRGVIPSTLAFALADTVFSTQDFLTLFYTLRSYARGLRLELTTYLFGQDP
Experimental: (§2) The NMDA receptor (PCP site) screen was conducted according to Goldman, M. E. et al. FEBS Letters 85, […]. The norepinephrine transporter screen was conducted according to Galli A et al. J. Exp. Biol. 1995, 198, 2197. The dopamine and serotonin transporter screens were conducted according to Gu, H. et al. J. Biol. Chem. 1994, 269(10), 7124. The sigma-1 screen was conducted according to de Costa B. R. FEBS 1989, 251, 53.

[4] = acetic acid writhing model (in vivo analgesia); conditions: iv; administered intravenously
Experimental: as §1

[5] = system: rats; assay: learned helplessness test in rats; type: in vivo, rat; conditions: male Wistar rats; dose of 5 mg/kg i.p.
Experimental: The objective of this study was to evaluate the potential antidepressant activity of compounds in the learned helplessness test in rats.
Male rats (Wistar, Iffa Credo, St.-Germain/1″Arbresle, France) with initial weight of 180-200 g at the beginning of the experiments were housed 3 per cage under dark cycle of 12 h-12 h (light on at 7:00 a.m., off at 7:00 p.m.) at a room temperature of 21±1° C., with a minimum 50% humidity, for a minimum of 7 days before the experiments. They had free access to commercial rat chow (UFAC, Vigney, France, ref 811002) and tap water. The learned helplessness test included two phases over 5 days.
Phase 1: Helplessness induction
On day 1, inescapable electric foot-shocks were delivered individually to rats in a Plexiglas chamber (20 cm×16 cm×16 cm [1×w×h]) with a floor consisting of stainless-steel rods. A constant-current shocker (LETICA LI 100-26, Barcelona, Spain) was used to deliver inescapable shocks (0.8 m A scrambled DC current; 10 s duration every 20 s) over 60 minutes. “Non-helplessness” control rats were placed for 1 h in identical chambers without shocking.
Phase 2: Conditional Avoidance Training
Avoidance training in automated two-way shuttle-box (LETICA LI916, Barcelona, Spain) took place on day 3, 4, and 5. The shuttle-box is divided into two equal-sized chambers connected by a 10×10 cm opening. […]

[6] = molecular target: NMDA (PCP site); assay: NMDA receptor (PCP site) radioligand binding screen
Experimental: as §2

[7] = system: rats; assay: MK-801-induced locomotion and stereotypies, animal model of psychosis; type: in vivo, rat; conditions: male Wistar rats; 1.0, 2.5 and 5.0 mg/kg i.p.; 0.3 mg/kg MK-801 i.p.
Text: The non-competitive NMDA receptor antagonist MK-801 induces stereotypies and hyperactivity in rodents (see: Carlsson, M. and Carlsson, A., J. Neural Transm., 75, 221 (1989)) by interacting with the NMDA receptor-associated ion channel. Phencyclidine, which also interferes with the NMDA receptor, produces psychotic effects in humans similar in many respects to schizophrenia. […] The neuroleptics haloperidol, clozapine and raclopride are able to reverse the behavioral changes induced by MK-801 in rats (Gattaz, W. F., Schummer, B. and Behrens, S., J. Neural Transm., 96, 227 (1994)). Therefore the MK-801-induced activity and stereotypies in rats may represent an appropriate animal model to test the potential efficacy of antipsychotic drugs.
Male Wistar rats (Iffa Credo, St Germain/l'Arbresle, France), weight 250-300 g were housed 2 per cage on a 12 h/12 h light dark cycle (lights on at 7.00 a.m.) at a room temperature of 21±2° C. for a minimum of 5 days before testing. All animals had access to commercial food and tap water ad libitum. […]
On the day of the experiment, rats were treated with either reference drug vehicle, the reference drugs haloperidol or clozapine the test compound vehicle or test compounds. […] Stereotypies, defined as wall-contacts with the snout, and locomotion, defined as turn-rounds of 180°, were assessed during 5 minute periods.

[8] = molecular target: 5-HT Transporter (UniProt P31645); assay: serotonin transporter radioligand binding screen
Experimental: as §2

[9] = molecular target: NE Transporter (Homo sapiens, UniProt P23975); assay: norepinephrine transporter radioligand binding screen
Sequence of NE Transporter (P23975 whole entry): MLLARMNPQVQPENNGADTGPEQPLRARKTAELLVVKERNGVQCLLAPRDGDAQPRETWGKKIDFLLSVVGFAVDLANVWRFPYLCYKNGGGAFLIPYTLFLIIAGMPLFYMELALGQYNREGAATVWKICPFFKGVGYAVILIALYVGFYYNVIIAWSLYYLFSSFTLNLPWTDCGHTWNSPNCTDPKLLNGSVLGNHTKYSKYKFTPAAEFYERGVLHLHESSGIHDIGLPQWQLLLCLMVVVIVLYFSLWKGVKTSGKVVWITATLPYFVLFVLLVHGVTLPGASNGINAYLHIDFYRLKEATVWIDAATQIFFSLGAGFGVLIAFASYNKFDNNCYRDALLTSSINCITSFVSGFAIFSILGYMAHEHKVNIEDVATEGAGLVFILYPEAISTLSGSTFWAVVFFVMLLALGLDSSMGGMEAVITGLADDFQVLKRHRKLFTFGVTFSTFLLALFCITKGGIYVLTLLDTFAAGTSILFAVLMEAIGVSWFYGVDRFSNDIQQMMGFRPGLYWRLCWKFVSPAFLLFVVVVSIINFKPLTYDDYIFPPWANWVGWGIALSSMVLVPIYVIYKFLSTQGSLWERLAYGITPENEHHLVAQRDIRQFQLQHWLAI
Experimental: as §2

Work on `CS(=O)(=O)N(CC1CCCN(CCc2ccccc2)C1)c1ccccc1` (racemic) [Compound 6, N-(1-phenethyl-pieridin-3-ylmethyl)-N-phenyl-methanesulfonamide] yielded an ED50 [1] of 23 mg/kg, an ED50 [2] of 18 mg/kg and a pIC50 [3] of 6.93. For the same compound, the ED50 [4] was 7.8 mg/kg and the “activity in the learned helplessness test” value [5] was “active”.
`CS(=O)(=O)N(CC1CCCNC1)c1ccccc1` (stereo not drawn) [Compound 5, N-phenyl-N-piperidin-3-ylmethyl-methanesulfonamide] showed a pIC50 [6] of 6.97.
`CS(=O)(=O)N(C[C@@H]1CCCN(CCc2ccccc2)C1)c1ccccc1` [Compound 12, (R)-N-(1-phenethyl-pieridin-3-ylmethyl)-N-phenyl-methanesulfonamide] gave a pIC50 [3] of 6.26.
With `CS(=O)(=O)N(C[C@H]1CCCN(CCc2ccccc2)C1)c1ccccc1` [Compound 16, (S)-N-(1-phenethyl-pieridin-3-ylmethyl)-N-phenyl-methanesulfonamide] the pIC50 [3] was 7.66, the MK-801-induced locomotion [7] was “dose-dependent reduction” and the MK-801-induced stereotypies [7] was “dose-dependent reduction”.
In the case of `CS(=O)(=O)N(C[C@@H]1CCCN(CC2(c3ccc(Cl)cc3)CCC2)C1)c1ccccc1` [Compound 21, N-{1-[1-(4-Chloro-phenyl)-cyclobutylmethyl]-piperidin-3-R-ylmethyl}-N-phenyl-methanesulfon-amide], the pIC50 [8] was 5.55 and the pIC50 [9] was 7.21.
